Values quoted from earlier work, collected in article PMC4096870 (ChemMedChem, 2014).

In the case of `O=P(O)(O)C(Br)c1ccccc1` (stereo not drawn) [BBP, α-bromobenzyl phosphonate], the Ki (YopH) is listed as 4100 µM, the kinact (YopH) is listed as 0.002 s⁻¹ and the kinact/KI (YopH) is listed as 0.49 M⁻¹ s⁻¹.

In the case of `C=CS(=O)(=O)c1ccccc1` [PVS, phenyl vinyl sulfone], the Ki (YopH) is listed as 350 µM, the kinact (YopH) is listed as 0.001 s⁻¹ and the kinact/KI (YopH) is listed as 2.9 M⁻¹ s⁻¹.

For `C=CS(=O)(=O)Oc1ccccc1` [PVSN, phenyl vinyl sulfonate], the Ki (YopH) is listed as 290 µM and the kinact (YopH) is listed as 0.01 s⁻¹.

In the case of `O=C(Oc1cc(O)cc2c1C[C@@H](OC(=O)c1cc(O)c(O)c(O)c1)[C@@H](c1cc(O)c(O)c(O)c1)O2)c1cc(O)c(O)c(O)c1` [epigallocatechin-3,5-digallate], the IC50 (LYP) is given as 0.05 µM.
